Experimental data reported in patent US5013757A, “Physiologically active substance Tan-931, its derivatives, their production and use” (Takeda Chemical Industries, Ltd., priority 1988, dated 1991).

Legend:
human placenta aromatase = biological target: T1, human placenta aromatase (Homo sapiens, UniProt P11511); assay: In vitro human placenta microsome aromatase inhibitory activity; type: biochemical; conditions: androstenedione 4 μM, 37° C., 1 hour
T1 construct: The resulting pellet was used as a microsome fraction; from tissue; host or cells: human placenta, microsome fraction (148,000×g pellet)
T1 sequence (P11511 1-503): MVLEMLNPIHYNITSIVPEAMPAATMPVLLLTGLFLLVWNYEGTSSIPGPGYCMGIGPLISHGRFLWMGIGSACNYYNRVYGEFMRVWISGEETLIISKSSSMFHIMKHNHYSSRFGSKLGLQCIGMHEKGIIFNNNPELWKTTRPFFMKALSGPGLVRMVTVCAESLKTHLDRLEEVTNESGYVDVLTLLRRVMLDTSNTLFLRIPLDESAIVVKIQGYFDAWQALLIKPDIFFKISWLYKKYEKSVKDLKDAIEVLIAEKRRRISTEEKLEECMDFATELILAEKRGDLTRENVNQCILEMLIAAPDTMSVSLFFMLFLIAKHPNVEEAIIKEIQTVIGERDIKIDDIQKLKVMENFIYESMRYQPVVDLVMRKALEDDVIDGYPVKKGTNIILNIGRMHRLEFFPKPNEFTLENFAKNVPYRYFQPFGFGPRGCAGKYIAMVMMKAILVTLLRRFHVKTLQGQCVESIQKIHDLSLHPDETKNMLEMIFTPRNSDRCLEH
Text: (§1) The following Experiments specifically illustrate in vitro human placenta aromatase inhibitory activity and inhibition of estrogen synthesis in the rat by the compounds of the present invention.
Preparation of human placenta microsome
The method of F. A. Thompson et al. [J. Biol. Chem., 249, 5364 (1974)] was partly modified. Namely, the placenta was washed with 0.15 M KCl which was previously cooled to remove the attached membrane and large blood vessels and then sufficiently and finely cut with scissors. To the finely cut tissue was added 2 ml of cold 0.02 M phosphate buffer containing 0.25M sucrose (pH 7.4) per 1 g of the tissue and the mixture was homogenized with Polytron homogenizer (30 second×3, in ice). Then, the mixture was centrifuged at 800×g for 10 minutes and the supernatant was centrifuged at 20,000×g for 30 minutes and further at 148,000×g for 45 minutes. The resulting pellet was used as a microsome fraction. The microsome obtained was suspended in 1 ml of the above phosphate buffer per 10 g of the placenta and stored at -80° C. Upon use, it was diluted 5 to 6 times.
Determination of aromatase activity and inhibitory activity
The method of F. A. Thompson et al. [see above] was partly modified as follows.
A reaction mixture (225 μl ) containing 4-androstene-3,17-dione (4 μM ), 1,2 [^3 H]-androstenedione (140,000 dpm), NADPH (550 μM ) and the above microsome (20 μl ) and a solution containing an inhibitor or not (5 μl ) was incubated at 37° C. for 1 hour. According to this determination, [^3 H]-H2 O was formed by aromatization of androstenedione. Then, the reaction mixture was extracted with chloroform (0.5 ml) to separate layers and the aqueous layer obtained was treated with 5% activated carbon (0.25 ml) to remove the free steroid. After high-speed centrifugation, to the supernatant (0.2 ml) was added scintillator (3 ml) and radioactivity was determined with a liquid scintillation counter. By comparing the result obtained by addition of an inhibitor with that of a control sample wherein the reaction was carried out without addition of any inhibitor, an inhibitory rate (%) was calculated. The effectiveness was expressed by the concentration which was required for inhibiting 50% of the enzyme activity at the substrate (androstenedione) concentration of 4 μM

[1] = system: estrogen synthesis in rat; assay: In vivo inhibition of estrogen synthesis in PMSG-stimulated young female rats; set-up: species or system SD rats (female, 19 days old)
Description: as §1
In vivo inhibition of estrogen synthesis by the compound 1 (TAN-931) was studied by the following experiment.
Five young SD rats (female, 19 days old) were used per one group. The rats of test groups were administered the compound suspended in 0.2% gum arabic-physiological saline solution subcutaneously at the doses of 25, 50 and 100 mg/kg for 4 days at 24-hour intervals. The rats of control groups (Control 1 and 2) were administered 0.2 ml of 0.2% gum arabic-physiological saline solution. After administration of the compound on the third day after initiation of the test, a single dose of 10 U/rat (s.c.) of pregnant mare's serum gonadotropin (PMSG) was administered to the rats of test groups and Control 2. […] After centrifugation, the plasma was obtained and the plasma estradiol-17 β level was determined by radio immunoassay. Further, the uterus and ovarium were removed from the rat, freed from connective tissue and the like and weighed, respectively. As the control compound for estimation of the pharmacological activity, 4-hydroxyandrostenedione (4-OHA) was used.

Solubility of TAN-931 = type: physicochemical
Acute toxicity in mice = conditions: mouse, in vivo, sc; subcutaneous, male mice (4 weeks old)
Text: Thus, the compounds (I-1) have a potent aromatase inhibitory activity and, therefore, they can be advantageously used for prevention and treatment of estrogen dependent diseases such as breast cancer, endometriosis, endometrium cancer, benign breast diseases, prostatomegaly and the like as well as for control of conception. Further, toxicity of the compounds (I-1) of the present invention is low.

[2] = system: various enzymes which pertain to biosynthesis of steroid hormones; conditions: background statement; cited from earlier work
[3] = 25 mg/kg/day s.c., 4 days, PMSG
[4] = 50 mg/kg/day s.c., 4 days, PMSG
[5] = 100 mg/kg/day s.c., 4 days, PMSG

Row | SMILES | IC50 (human placenta aromatase) [µM] | also measured
1 | O=Cc1cc(C(=O)O)cc(O)c1C(=O)c1c(O)cccc1O [Compound 1] | 17.2 | Plasma estradiol 17-B level [1, 3]: 312.8 ± 192.4 pg/mL; Tissue weight Ovarium [1, 3]: 24.2 ± 6.2 mg; Tissue weight Uterus [1, 3]: 108.4 ± 15.6 mg; Plasma estradiol 17-B level [1, 4]: 80.8 ± 64.2 pg/mL; Tissue weight Ovarium [1, 4]: 16.4 ± 6.4 mg; Tissue weight Uterus [1, 4]: 89.4 ± 30.8 mg; Plasma estradiol 17-B level [1, 5]: 50.2 ± 23.5 pg/mL; Tissue weight Ovarium [1, 5]: 14.5 ± 1.5 mg; Tissue weight Uterus [1, 5]: 66.3 ± 38.0 mg; blood estrogen level raised by stimulation due to PMSG administration ([1]; result in words): significantly lowered; Solubility (Solubility of TAN-931; chloroform, diethyl ether): Slightly soluble; Solubility (Solubility of TAN-931; dimethylsulfoxide (DMSO), methanol, ethanol, acetone): Soluble; Solubility (Solubility of TAN-931; water, n-hexane): Insoluble; LD50 (Acute toxicity in mice): ≥ 800 mg/kg
2 | COC(=O)c1cc(O)c(C(=O)c2c(O)cccc2O)c(C=O)c1 [Compound 2] | 22.1 | 
3 | COCOC(=O)c1cc(O)c(C(=O)c2c(O)cccc2O)c(C=O)c1 [Compound 3] | 12.4 | 
4 | C[C@]12CCC(=O)C(O)=C1CC[C@@H]1[C@@H]2CC[C@]2(C)C(=O)CC[C@@H]12 [Compound 4-OHA, 4-hydroxyandrostenedione, reference compound] |  | Plasma estradiol 17-B level [1, 5]: 149.6 ± 76.7 pg/mL; Tissue weight Ovarium [1, 5]: 28.4 ± 7.9 mg; Tissue weight Uterus [1, 5]: 85.9 ± 13.0 mg; Weight gain [1, 5]: 22.2 ± 1.5 g
5 | O=Cc1cc(C(=O)OCc2ccccc2)cc(O)c1C(=O)c1c(O)cccc1O [Compound 4] | 206 | 
6 | CCCCCCOC(=O)c1cc(O)c(C(=O)c2c(O)cccc2O)c(C=O)c1 [Compound 5] | 32.3 | 
7 | CNC(=O)c1cc(O)c(C(=O)c2c(O)cccc2O)c(C=O)c1 [Compound 6] | 21.3 | 
8 | CN(C)C(=O)c1cc(O)c(C(=O)c2c(O)cccc2O)c(C=O)c1 [Compound 7] | 14.6 | 
9 | CCCCCCNC(=O)c1cc(O)c(C(=O)c2c(O)cccc2O)c(C=O)c1 [Compound 8] | 17.6 | 
10 | C=CCNC(=O)c1cc(O)c(C(=O)c2c(O)cccc2O)c(C=O)c1 [Compound 9] | 15.2 | 
11 | CC(C)NC(=O)c1cc(O)c(C(=O)c2c(O)cccc2O)c(C=O)c1 [Compound 10] | 25.6 | 
12 | O=Cc1cc(C(=O)N2CCOCC2)cc(O)c1C(=O)c1c(O)cccc1O [Compound 11] | 16.4 | 
13 | O=Cc1cc(C(=O)N2CCCC2)cc(O)c1C(=O)c1c(O)cccc1O [Compound 12] | 23.4 | 
14 | Cc1ccc(NC(=O)c2cc(O)c(C(=O)c3c(O)cccc3O)c(C=O)c2)cc1 [Compound 13] | 16.1 | 
15 | CN(C)CCNC(=O)c1cc(O)c(C(=O)c2c(O)cccc2O)c(C=O)c1 [Compound 14] | 16.9 | 
16 | COc1cc(C(=O)O)cc(C=O)c1C(=O)c1c(O)cccc1O [Compound 15] | 24 | 
17 | COc1cccc(O)c1C(=O)c1c(O)cc(C(=O)O)cc1C=O [Compound 16] | 135 | 
18 | COc1cccc(O)c1C(=O)c1c(C=O)cc(C(=O)O)cc1OC [Compound 17] | 96.6 | 
19 | COc1cc(C(=O)N(C)C)cc(C=O)c1C(=O)c1c(O)cccc1O [Compound 19] | 18.3 | 
20 | O=Cc1cc(C(=O)O)cc(O)c1C(=O)c1c(O)ccc(Cl)c1O [Compound 27] | 14.3 | 
21 | CCC1(c2ccc(N)cc2)CCC(=O)NC1=O (centres unmarked) [aminoglutethimide] |  | inhibition of enzymes of steroid hormone biosynthesis [2]: inhibits various enzymes
